From paper PMC13586308, “Cell type–selective targeting by heterobifunctional protein binders via in-cell enrichment” (Nature Communications, 2026)
Read-outs that look alike come from different tables or passages of the source.

Legend:
[1] = molecular target: T1, BRD4^BD1 (Homo sapiens, UniProt O60885); assay: competitive fluorescence polarization assay, BRD4 BD1 -/+ presenter protein; type: binding; settings: for α BRD4^BD1 (binding cooperativity factor): ratio of binding in absence or presence of FKBP12
T1 construct: to the isolated BD1 and BD2 domains of BRD2, BRD3 and BRD4

[2] = molecular target: T2, BRD4 (Homo sapiens, UniProt O60885); assay: NanoBRET BRD4, transient BRD4-NanoLuc in HEK293T cells; type: cell-based; settings: intact HEK293 cells
T2 construct: full-length BRD4 fused to NanoLuc at N terminus; expressed in transfected cells; host or cells: HEK293T
Experimental: The NanoBRET assay was performed as described previously[26],[39]. To study BRD4 engagement, we employed two models: cells stably expressing BRD4-NanoLuc and cells with transient BRD4-NanoLuc expression. For stable cell lines, the coding sequence of human BRD4 (Isoform B) was fused in-frame to NanoLuc luciferase under the control of the human ubiquitin C (UbC) promoter, with left and right homology arms targeting the AAVS1 locus in intron 1 of the PPP1R12C gene to facilitate genomic integration. PC3 prostate cancer cells were transfected with this construct and vectors expressing Cas9 and an sgRNA targeting the AAVS1 locus using Lipofectamine 3000 (Invitrogen). Successful integrands were selected with blasticidin. Expression of the fusion protein was confirmed by western blot. For transient experiments, full-length BRD4 fused to NanoLuc at N terminus, was cloned into an expression plasmid and transfected into HEK293T cells using FuGENE HD (Promega, E2312), with protein expression allowed for 20 h. Serially diluted inhibitors and BRD Tracer-02 (Promega, TracerDB ID: T000022) at the Tracer KD concentration (from TracerDB)[40] were dispensed into white 384-well plates (Greiner 781207) using an ECHO 550 acoustic dispenser (Labcyte). The cells were trypsinized, resuspended in Opti-MEM without phenol red (Life Technologies), and seeded at 2 × 10^5 cells/mL. After equilibration for 2 h at 37 °C/5% CO₂ following compound treatment, the NanoBRET® NanoGlo Substrate + Extracellular NanoLuc® Inhibitor (Promega, N2162) was added according to the manufacturer’s protocol, and filtered luminescence was measured on a PHERAstar plate reader (BMG Labtech) using a donor (450 nm BP) and acceptor (610 nm LP) filter pair. Competitive displacement data were analyzed using GraphPad Prism 9 with a normalized 3-parameter curve fit: Y = 100/(1 + 10^(X − log IC₅₀)). For BRET measurements after FKBP12 knockdown in stably expressing BRD4 Nano-Luc reporter cell line, 10 nL/per well of the FKBP12 PROTAC was pipetted to each well using Labcyte to achieve the final concentration of 200 nM and the plated cells were incubated over-night at 37 °C and 5% CO2. BRET measurements were performed as outlined above.

[3] = molecular target: T3, FKBP12 (Homo sapiens, UniProt P62942); assay: NanoBRET FKBP12 in intact HEK293 cells; type: cell-based
T3 sequence (P62942 whole entry): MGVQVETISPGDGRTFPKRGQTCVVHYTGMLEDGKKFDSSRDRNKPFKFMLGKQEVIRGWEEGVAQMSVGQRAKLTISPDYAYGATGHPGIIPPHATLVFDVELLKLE

[4] = molecular target: T3, FKBP12; assay: competitive fluorescence polarization assay, binding to FKBP12; settings: competitive FP assay
[5] = molecular target: T4, BRD4^BD2 (Homo sapiens, UniProt O60885); assay: competitive fluorescence polarization assay, BRD4 BD2 -/+ presenter protein; type: binding; settings: for α BRD4^BD2 (binding cooperativity factor): ratio of binding in absence or presence of FKBP12
T4 construct: to the isolated BD1 and BD2 domains of BRD2, BRD3 and BRD4

[6] = absence of FKBP12, 2 nM JQ1-FL tracer, read-out: Binding to BRD4^BD1 - FKBP12 Kd
[7] = presence of 15 µM FKBP12, read-out: Binding to BRD4^BD1 + FKBP12 Kd (converted)
[8] = absence of FKBP12, 2 nM JQ1-FL tracer, read-out: Binding to BRD4^BD2 - FKBP12 Kd
[9] = presence of 15 µM FKBP12, read-out: Binding to BRD4^BD2 + FKBP12 Kd (converted)

Structure (SMILES)	Kd [1, 6]	Kd [1, 7]	α BRD4^BD1 (binding cooperativity factor) [1]	IC50 [2]	IC50 [3]	Kd [4]	Kd [5, 8]	α BRD4^BD2 (binding cooperativity factor) [5]	Kd [5, 9]	nanoBRET BRD4 IC50 [2]
Cc1sc2c(c1C)C(c1ccc(Cl)cc1)=NC(CC(=O)NCCOCCOCCn1cc(C3CN(Cc4ccccn4)C(=O)C4CCCC3N4S(=O)(=O)c3cc(Cl)cc(Cl)c3)nn1)c1nnc(C)n1-2 (stereo not drawn) [a2c]	0.44 ± 0.07 µM	0.25 ± 0.04 µM	1.8	0.62 µM	0.017 µM	0.0006 µM	0.51 ± 0.11 µM	0.5		
C=C[C@H]1CN(Cc2ccccn2)C(=O)[C@@H]2CCC[C@H]1N2S(=O)(=O)c1ccc(-c2cn(CCOCCOCCNC(=O)C[C@@H]3N=C(c4ccc(Cl)cc4)c4c(sc(C)c4C)-n4c(C)nnc43)nn2)c(Cl)c1 [a2h]	0.21 ± 0.018 µM	2.4 ± 0.2 µM		0.3 µM	0.17 µM	0.0024 µM	0.046 ± 0.01 µM		1.3 ± 0.2 µM	
C=CC1CN(Cc2cn(CCOCCOCCNC(=O)CC3N=C(c4ccc(Cl)cc4)c4c(sc(C)c4C)-n4c(C)nnc43)nn2)C(=O)C2CCCC1N2S(=O)(=O)c1cc(Cl)cc(Cl)c1 (stereo not drawn) [a2i]	0.33 ± 0.04 µM	0.29 ± 0.03 µM	1.1	0.79 µM	0.18 µM	0.0087 µM	0.14 ± 0.03 µM	0.1	0.96 ± 0.12 µM	
Cc1sc2c(c1C)C(c1ccc(Cl)cc1)=NC(CC(=O)N1CCN(CCn3cc(COCC4CN(Cc5ccccn5)C(=O)C5CCCC4N5S(=O)(=O)c4cc(Cl)cc(Cl)c4)nn3)CC1)c1nnc(C)n1-2 (stereo not drawn) [a4d]	0.5 ± 0.06 µM	0.38 ± 0.05 µM	1.3		0.089 µM	0.0011 µM		1		none
Cc1sc2c(c1C)C(c1ccc(Cl)cc1)=NC(CC(=O)N1CCN(CCCn3cc(COCC4CN(Cc5ccccn5)C(=O)C5CCCC4N5S(=O)(=O)c4cc(Cl)cc(Cl)c4)nn3)CC1)c1nnc(C)n1-2 (stereo not drawn) [a5d]	0.74 ± 0.1 µM	0.3 ± 0.05 µM	2.5	1.08 µM	0.093 µM	0.0012 µM		1.8	0.6 ± 0.1 µM	
Cc1sc2c(c1C)C(c1ccc(Cl)cc1)=NC(CC(=O)N1CCN(CCCCn3cc(COCC4CN(Cc5ccccn5)C(=O)C5CCCC4N5S(=O)(=O)c4cc(Cl)cc(Cl)c4)nn3)CC1)c1nnc(C)n1-2 (stereo not drawn) [a6d]	0.6 ± 0.08 µM	0.4 ± 0.05 µM	1.5	0.787 µM	0.141 µM	0.0009 µM		1.8	0.8 ± 0.2 µM	
Cc1sc2c(c1C)C(c1ccc(Cl)cc1)=NC(CC(=O)N1CCC(CN3CCC(n4cc(C5CN(Cc6ccccn6)C(=O)C6CCCC5N6S(=O)(=O)c5cc(Cl)cc(Cl)c5)nn4)CC3)CC1)c1nnc(C)n1-2 (stereo not drawn) [a7c]	0.52 ± 0.08 µM	0.18 ± 0.03 µM	2.9	0.665 µM	0.138 µM	0.0035 µM	0.7 ± 0.1 µM	0.8	0.9 ± 0.2 µM	
Cc1sc2c(c1C)C(c1ccc(Cl)cc1)=NC(CC(=O)N1CCC(CN3CCC(n4cc(COCC5CN(Cc6ccccn6)C(=O)C6CCCC5N6S(=O)(=O)c5cc(Cl)cc(Cl)c5)nn4)CC3)CC1)c1nnc(C)n1-2 (stereo not drawn) [a7d]	0.68 ± 0.07 µM	0.31 ± 0.05 µM	2.2	1.11 µM	0.209 µM	0.0023 µM	0.7 ± 0.1 µM	1	0.66 ± 0.09 µM	
Cc1sc2c(c1C)C(c1ccc(Cl)cc1)=NC(CC(=O)N1CCC(CN3CCC(Cn4cc(C5CN(Cc6ccccn6)C(=O)C6CCCC5N6S(=O)(=O)c5cc(Cl)cc(Cl)c5)nn4)CC3)CC1)c1nnc(C)n1-2 (stereo not drawn) [a8c]	0.17 ± 0.02 µM	0.15 ± 0.02 µM	1.1	0.541 µM	0.178 µM	0.0021 µM	0.19 ± 0.03 µM	1.2	0.16 ± 0.03 µM	
Cc1sc2c(c1C)C(c1ccc(Cl)cc1)=NC(CC(=O)N1CCC(CN3CCC(Cn4cc(COCC5CN(Cc6ccccn6)C(=O)C6CCCC5N6S(=O)(=O)c5cc(Cl)cc(Cl)c5)nn4)CC3)CC1)c1nnc(C)n1-2 (stereo not drawn) [a8d]	0.16 ± 0.03 µM	0.084 ± 0.016 µM	1.9	0.357 µM	0.228 µM	0.0018 µM	0.13 ± 0.03 µM	1	0.12 ± 0.03 µM	
Cc1sc2c(c1C)C(c1ccc(Cl)cc1)=NC(CC(=O)N1CCC(N3CCC(n4cc(C5CN(Cc6ccccn6)C(=O)C6CCCC5N6S(=O)(=O)c5cc(Cl)cc(Cl)c5)nn4)CC3)CC1)c1nnc(C)n1-2 (stereo not drawn) [a9c]	0.28 ± 0.04 µM	0.18 ± 0.02 µM	1.6	0.155 µM	0.107 µM	0.0022 µM	0.31 ± 0.04 µM	0.5	0.65 ± 0.09 µM	
Cc1sc2c(c1C)C(c1ccc(Cl)cc1)=NC(CC(=O)N1CCC(N3CCC(n4cc(COCC5CN(Cc6ccccn6)C(=O)C6CCCC5N6S(=O)(=O)c5cc(Cl)cc(Cl)c5)nn4)CC3)CC1)c1nnc(C)n1-2 (stereo not drawn) [a9d]	0.34 ± 0.04 µM	0.14 ± 0.01 µM	2.4	0.364 µM	0.169 µM	0.0017 µM	0.5 ± 0.09 µM	1.1	0.45 ± 0.07 µM	
Cc1sc2c(c1C)C(c1ccc(Cl)cc1)=NC(CC(=O)N1CCC(N3CCC(Cn4cc(C5CN(Cc6ccccn6)C(=O)C6CCCC5N6S(=O)(=O)c5cc(Cl)cc(Cl)c5)nn4)CC3)CC1)c1nnc(C)n1-2 (stereo not drawn) [a10c]	0.12 ± 0.03 µM	0.9 ± 0.1 µM	0.1	0.497 µM	0.288 µM	0.0003 µM	0.17 ± 0.03 µM			
Cc1sc2c(c1C)C(c1ccc(Cl)cc1)=NC(CC(=O)N1CCC(N3CCC(Cn4cc(COCC5CN(Cc6ccccn6)C(=O)C6CCCC5N6S(=O)(=O)c5cc(Cl)cc(Cl)c5)nn4)CC3)CC1)c1nnc(C)n1-2 (stereo not drawn) [a10d]	0.14 ± 0.03 µM	0.1 ± 0.03 µM	1.4		0.241 µM	0.0016 µM	0.17 ± 0.03 µM	2.1	0.08 ± 0.02 µM	none
